Assay results published in ChEMBL document CHEMBL1201862, “PubChem BioAssay data set” (2004).
The source made the active and inactive calls.

What was measured:
[1] = cytotoxicity in HEK-293T cells, dose response, cytotoxicity control for TCR NF-kB inhibitor project, luminescence, T-cell screen hits (AID 489026); type: functional, cell-based;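 further: cells exposed to compound about 14 hours before the viability readout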
[2] = target: T1, Peroxisome proliferator-activated receptor gamma/Nuclear receptor coactivator 1 (Homo sapiens, UniProt P37231); experiment: (§1) TR-FRET dose response biochemical High Throughput Screening assay for agonists of the steroid receptor coactivator 1 (SRC-1) recruitment by the peroxisome proliferator-activated receptor gamma (PPAR gamma): non-selective agonists. [Related pubchem assays (depositor defined):AID1300, AID1808, AID504735, AID631]; type: protein assay
[3] = target: T2, Peroxisome proliferator-activated receptor gamma/Nuclear receptor coactivator 3 (Homo sapiens, UniProt P37231); experiment: as §1, with “3 (SRC-3)” for “1 (SRC-1)”, “assays: 1301 (Confirmation screen.), 1048 (Primary screen.)]” for “assays (depositor defined):AID1300, AID1808, AID504735, AID631]”; type: functional
[4] = target: T3, Peroxisome proliferator-activated receptor gamma/Nuclear receptor coactivator 2 (Homo sapiens, UniProt P37231); experiment: TR-FRET dose response biochemical High Throughput Screening assay for agonists of the steroid receptor coactivator 2 (SRC-2) recruitment by the peroxisome proliferator-activated receptor gamma (PPAR gamma): non-selective agonists. [Related pubchem assays: 1297, 1032 ]; type: functional
[5] = Luminescence Cell-Based Dose Confirmation HTS to Identify Activators of 5'UTR Stem-Loop Driven Alpha-Synuclein mRNA Translation in H4 Neuroglioblastoma Cells. [Related pubchem assays: 1829 (Project Summary), 1814 (Primary HTS)]; type: functional
[6] = Luminescence Cell-Based Dose Response HTS to Identify Activators of Luciferase Translation or Activity in H4 […] Cells. [Related pubchem assays: 1829 (Project Summary), 1814 (Primary HTS)]; type: functional
H4 = experiment: Luminescence Cell-Based Dose Response HTS to Identify Activators of 5'UTR Stem-Loop Driven Prion Protein mRNA Translation in H4 Neuroglioblastoma Cells. [Related pubchem assays: 1829 (Project Summary), 1814 (Primary HTS)]; type: functional; settings: Homo sapiens
[7] = THP-1 cell cytotoxicity, dose response, cytotoxicity control for non-replicating M. tuberculosis project (AID 489025); type: functional
cells = type: functional
Aminopeptidase N = target: T4, Aminopeptidase N (Plasmodium falciparum FcB1/Columbia, UniProt O96935); experiment: P. falciparum M1AAP inhibitors, biochemical, fluorogenic H-Leu-NHMec substrate, 1536-well (AID 1445); parameters: species or system Plasmodium falciparum 3D7, 3D7
T4 sequence (O96935 whole entry): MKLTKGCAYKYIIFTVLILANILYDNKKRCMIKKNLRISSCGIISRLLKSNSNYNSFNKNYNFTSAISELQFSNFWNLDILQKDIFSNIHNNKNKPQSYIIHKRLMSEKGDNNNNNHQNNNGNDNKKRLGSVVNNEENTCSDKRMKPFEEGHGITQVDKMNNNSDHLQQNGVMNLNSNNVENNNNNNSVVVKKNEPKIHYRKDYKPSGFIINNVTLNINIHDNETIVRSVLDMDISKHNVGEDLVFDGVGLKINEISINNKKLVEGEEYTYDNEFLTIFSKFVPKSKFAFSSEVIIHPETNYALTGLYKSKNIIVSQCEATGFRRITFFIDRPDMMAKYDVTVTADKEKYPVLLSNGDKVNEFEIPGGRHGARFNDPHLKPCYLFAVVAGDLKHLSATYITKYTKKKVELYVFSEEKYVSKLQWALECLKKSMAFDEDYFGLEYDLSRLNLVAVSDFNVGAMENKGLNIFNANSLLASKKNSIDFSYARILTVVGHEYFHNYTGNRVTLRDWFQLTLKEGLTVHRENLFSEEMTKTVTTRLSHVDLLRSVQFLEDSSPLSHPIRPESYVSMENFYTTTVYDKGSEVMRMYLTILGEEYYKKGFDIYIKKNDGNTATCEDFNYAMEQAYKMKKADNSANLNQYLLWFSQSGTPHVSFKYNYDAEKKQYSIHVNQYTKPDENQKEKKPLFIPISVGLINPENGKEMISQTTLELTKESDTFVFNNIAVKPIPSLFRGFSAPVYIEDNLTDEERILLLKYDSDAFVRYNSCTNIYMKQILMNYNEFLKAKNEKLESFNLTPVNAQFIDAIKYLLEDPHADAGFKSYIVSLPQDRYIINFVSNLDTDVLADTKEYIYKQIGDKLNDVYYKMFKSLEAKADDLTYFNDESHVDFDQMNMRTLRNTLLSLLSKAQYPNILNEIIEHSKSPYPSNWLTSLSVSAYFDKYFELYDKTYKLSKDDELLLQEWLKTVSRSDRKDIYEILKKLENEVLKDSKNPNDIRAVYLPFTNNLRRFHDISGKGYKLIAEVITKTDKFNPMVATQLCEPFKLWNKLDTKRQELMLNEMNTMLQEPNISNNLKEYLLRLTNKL

Bcl-2-related protein A1 = target: T5, Bcl-2-related protein A1 (Mus musculus, UniProt Q07440); type: functional;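 further: confirmatory dose–response counterscreen on Bfl-1, used to check hits from a UBC13 polyubiquitin inhibitor campaign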
T5 sequence (Q07440 whole entry): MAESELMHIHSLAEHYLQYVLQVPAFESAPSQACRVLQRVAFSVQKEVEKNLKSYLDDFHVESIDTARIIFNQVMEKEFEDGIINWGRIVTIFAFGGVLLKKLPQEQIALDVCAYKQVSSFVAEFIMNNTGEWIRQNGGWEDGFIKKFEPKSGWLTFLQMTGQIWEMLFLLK

[8] = target: T6, Ubiquitin-conjugating enzyme E2 N (Homo sapiens, UniProt P61088); type: functional
T6 sequence (P61088 whole entry): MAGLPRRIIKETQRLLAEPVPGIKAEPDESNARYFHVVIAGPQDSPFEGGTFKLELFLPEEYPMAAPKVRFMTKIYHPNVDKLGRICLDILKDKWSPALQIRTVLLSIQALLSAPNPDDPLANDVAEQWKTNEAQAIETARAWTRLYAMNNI

[9] = target: T6, Ubiquitin-conjugating enzyme E2 N; type: functional; remark: listed apart in the source
Escherichia coli = experiment: microbe, parasite or virus in culture
[10] = target: T7, Short transient receptor potential channel 4 (Mus musculus, UniProt Q9QUQ5); experiment: mouse TRPC4 channel activators, dose response, cell-based, HEK293 TRPC4/mu-opioid, Fluo-4 calcium (AID 434937); type: functional
T7 sequence (Q9QUQ5 whole entry): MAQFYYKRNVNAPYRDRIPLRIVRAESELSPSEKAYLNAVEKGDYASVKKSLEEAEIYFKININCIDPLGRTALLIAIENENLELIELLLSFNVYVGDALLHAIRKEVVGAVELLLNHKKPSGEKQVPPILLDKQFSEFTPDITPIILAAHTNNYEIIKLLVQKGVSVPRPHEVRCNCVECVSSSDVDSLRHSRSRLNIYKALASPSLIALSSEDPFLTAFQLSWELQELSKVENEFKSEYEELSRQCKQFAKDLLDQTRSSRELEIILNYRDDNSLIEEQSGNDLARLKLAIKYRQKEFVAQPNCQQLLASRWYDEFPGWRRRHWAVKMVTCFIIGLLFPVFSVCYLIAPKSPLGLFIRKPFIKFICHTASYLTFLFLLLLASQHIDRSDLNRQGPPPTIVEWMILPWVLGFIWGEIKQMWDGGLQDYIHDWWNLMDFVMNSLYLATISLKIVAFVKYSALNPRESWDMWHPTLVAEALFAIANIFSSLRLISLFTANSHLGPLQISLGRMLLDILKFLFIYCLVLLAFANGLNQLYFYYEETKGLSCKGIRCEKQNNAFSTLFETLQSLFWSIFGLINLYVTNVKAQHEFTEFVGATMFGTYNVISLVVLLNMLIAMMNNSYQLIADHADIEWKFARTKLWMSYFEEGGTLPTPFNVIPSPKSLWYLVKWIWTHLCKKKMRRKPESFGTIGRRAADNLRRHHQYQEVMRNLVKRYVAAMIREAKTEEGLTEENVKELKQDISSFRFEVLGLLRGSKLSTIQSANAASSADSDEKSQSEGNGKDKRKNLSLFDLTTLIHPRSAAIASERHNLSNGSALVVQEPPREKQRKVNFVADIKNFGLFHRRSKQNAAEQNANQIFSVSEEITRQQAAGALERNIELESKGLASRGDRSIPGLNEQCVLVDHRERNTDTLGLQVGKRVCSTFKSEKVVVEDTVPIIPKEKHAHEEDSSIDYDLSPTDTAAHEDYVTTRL

Cytochrome P450 2C19 = Cytochrome P450 2C19 (Homo sapiens, UniProt P33261); experiment: Cytochrome panel assay with activity outcomes. Panel member name: p450-cyp2c19 Compounds with AC50 equal or less than 10 uM are considered active; type: functional
[11] = inhibitors of Vif binding to APOBEC3G peptide, primary screen, biochemical, TR-FRET, GST-Vif 1-94, biotin-A3G peptide, dose response retest (AID 1117319); type: functional;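 further: TR-FRET signal of purified GST-Vif binding a biotinylated A3G peptide; inhibitors lower the FRET signal by blocking Vif and A3G binding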
[12] = target: T3, Peroxisome proliferator-activated receptor gamma/Nuclear receptor coactivator 2; type: functional
[13] = target: T1, Peroxisome proliferator-activated receptor gamma/Nuclear receptor coactivator 1; type: functional
[14] = target: T2, Peroxisome proliferator-activated receptor gamma/Nuclear receptor coactivator 3; type: functional
[15] = inhibitors of intracellular T. cruzi replication, confirmation, NIH3T3 host cells, beta-gal luminescence (AID 2044); type: functional, cell-based;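 further: intracellular parasites grown in NIH/3T3 mouse fibroblasts as host cells; luminescent beta-galactosidase reporter signal from transgenic T. cruzi replicating inside host cells; inhibitors lower the luminescence signal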
[16] = cytotoxicity toward NIH3T3 fibroblasts, dose response, counter-screen, cell-based, ATP luminescence, mouse fibroblasts (AID 2010); type: functional;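 further: cells exposed to compound for about 90 hours before reading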

T3 sequence (P37231 whole entry): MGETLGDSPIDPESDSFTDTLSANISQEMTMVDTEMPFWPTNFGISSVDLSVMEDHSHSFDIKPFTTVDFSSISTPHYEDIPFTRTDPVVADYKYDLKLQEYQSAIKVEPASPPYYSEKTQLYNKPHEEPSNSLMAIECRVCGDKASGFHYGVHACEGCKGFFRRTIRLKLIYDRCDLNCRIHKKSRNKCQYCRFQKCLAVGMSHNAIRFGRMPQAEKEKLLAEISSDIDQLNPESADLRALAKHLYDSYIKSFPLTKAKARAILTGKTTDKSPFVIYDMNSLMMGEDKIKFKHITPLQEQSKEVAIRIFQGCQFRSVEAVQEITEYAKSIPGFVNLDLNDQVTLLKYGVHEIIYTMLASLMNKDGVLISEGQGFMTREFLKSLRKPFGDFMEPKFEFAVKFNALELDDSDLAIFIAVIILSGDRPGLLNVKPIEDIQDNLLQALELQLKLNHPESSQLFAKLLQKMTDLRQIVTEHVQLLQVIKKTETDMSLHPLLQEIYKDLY
T3 sequence (Q15596 whole entry, further chain): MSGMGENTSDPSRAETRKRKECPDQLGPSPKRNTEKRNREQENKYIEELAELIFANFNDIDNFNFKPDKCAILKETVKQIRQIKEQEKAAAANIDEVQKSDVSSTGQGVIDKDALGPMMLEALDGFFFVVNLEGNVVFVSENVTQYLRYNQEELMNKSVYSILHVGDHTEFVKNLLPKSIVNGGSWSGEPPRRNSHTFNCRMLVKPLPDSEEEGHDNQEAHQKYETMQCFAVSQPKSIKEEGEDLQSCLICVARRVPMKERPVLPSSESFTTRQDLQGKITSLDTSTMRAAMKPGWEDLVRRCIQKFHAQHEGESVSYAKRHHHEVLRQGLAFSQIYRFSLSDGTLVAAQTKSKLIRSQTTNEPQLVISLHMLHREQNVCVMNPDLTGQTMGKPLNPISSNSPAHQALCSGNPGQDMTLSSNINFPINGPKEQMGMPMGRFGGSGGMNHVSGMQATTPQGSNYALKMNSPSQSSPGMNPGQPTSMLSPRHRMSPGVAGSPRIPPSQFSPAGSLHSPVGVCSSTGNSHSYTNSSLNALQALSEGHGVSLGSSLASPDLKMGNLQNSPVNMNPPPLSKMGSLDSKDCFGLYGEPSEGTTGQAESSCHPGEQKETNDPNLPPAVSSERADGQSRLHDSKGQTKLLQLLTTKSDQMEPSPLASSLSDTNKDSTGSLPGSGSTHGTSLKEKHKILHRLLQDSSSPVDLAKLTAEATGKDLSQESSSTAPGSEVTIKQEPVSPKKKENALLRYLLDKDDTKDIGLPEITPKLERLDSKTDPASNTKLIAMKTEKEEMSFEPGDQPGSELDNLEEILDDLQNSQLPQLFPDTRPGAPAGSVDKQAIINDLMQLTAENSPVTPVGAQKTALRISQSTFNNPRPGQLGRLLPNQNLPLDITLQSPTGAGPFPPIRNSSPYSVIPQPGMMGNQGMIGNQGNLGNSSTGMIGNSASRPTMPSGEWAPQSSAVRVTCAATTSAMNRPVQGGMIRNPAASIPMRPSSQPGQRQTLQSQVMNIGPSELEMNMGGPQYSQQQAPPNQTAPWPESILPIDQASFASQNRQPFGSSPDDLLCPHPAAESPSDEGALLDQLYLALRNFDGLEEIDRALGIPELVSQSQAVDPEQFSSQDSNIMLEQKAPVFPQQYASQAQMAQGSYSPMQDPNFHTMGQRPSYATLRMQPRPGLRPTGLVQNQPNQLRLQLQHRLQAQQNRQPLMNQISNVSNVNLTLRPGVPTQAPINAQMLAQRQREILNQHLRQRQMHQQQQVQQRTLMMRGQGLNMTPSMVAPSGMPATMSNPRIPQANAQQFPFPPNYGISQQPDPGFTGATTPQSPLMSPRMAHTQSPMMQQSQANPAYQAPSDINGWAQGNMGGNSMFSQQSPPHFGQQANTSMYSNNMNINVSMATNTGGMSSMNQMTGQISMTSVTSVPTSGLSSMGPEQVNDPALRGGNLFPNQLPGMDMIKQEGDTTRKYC
T2 sequence (P37231 whole entry): as the sequence (P37231 whole entry) above
T2 sequence (Q9Y6Q9 whole entry, further chain): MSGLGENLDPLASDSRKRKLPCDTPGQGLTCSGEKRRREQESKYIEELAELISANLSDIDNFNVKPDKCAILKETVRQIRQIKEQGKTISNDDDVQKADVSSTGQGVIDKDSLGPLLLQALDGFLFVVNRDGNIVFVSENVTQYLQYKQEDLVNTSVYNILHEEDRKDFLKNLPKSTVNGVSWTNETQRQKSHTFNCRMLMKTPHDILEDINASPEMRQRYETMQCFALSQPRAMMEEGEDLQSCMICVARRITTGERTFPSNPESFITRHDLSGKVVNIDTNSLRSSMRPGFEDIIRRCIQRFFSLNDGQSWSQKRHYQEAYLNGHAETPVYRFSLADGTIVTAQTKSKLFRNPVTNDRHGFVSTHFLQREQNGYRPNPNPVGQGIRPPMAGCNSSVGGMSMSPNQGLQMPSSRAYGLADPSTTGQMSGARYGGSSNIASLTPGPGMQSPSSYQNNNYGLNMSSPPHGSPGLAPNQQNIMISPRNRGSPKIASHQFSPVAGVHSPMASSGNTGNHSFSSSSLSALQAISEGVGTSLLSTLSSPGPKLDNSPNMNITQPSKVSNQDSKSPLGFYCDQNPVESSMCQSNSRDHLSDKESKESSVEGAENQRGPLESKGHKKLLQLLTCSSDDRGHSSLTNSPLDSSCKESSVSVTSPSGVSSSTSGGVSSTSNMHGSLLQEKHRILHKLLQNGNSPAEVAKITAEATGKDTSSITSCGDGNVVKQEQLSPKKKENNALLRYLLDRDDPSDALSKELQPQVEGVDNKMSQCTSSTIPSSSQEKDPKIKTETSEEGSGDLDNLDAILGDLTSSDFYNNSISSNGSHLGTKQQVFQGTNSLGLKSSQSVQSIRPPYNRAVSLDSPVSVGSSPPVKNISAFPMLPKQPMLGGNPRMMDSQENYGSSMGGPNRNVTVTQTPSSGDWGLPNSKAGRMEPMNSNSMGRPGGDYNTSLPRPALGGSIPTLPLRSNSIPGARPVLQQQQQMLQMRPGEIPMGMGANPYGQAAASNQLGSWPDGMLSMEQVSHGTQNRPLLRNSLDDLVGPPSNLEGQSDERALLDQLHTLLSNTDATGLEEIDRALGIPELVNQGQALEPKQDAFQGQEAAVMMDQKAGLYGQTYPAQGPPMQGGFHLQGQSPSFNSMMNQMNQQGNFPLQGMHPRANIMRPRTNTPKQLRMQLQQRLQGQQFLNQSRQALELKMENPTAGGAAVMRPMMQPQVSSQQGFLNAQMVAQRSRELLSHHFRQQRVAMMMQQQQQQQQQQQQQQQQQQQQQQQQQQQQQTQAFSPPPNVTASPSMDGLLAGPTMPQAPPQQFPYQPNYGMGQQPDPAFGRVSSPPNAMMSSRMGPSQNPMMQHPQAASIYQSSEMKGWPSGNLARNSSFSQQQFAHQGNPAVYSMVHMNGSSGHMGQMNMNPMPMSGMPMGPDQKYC
Chain of Cytochrome P450 2C19 (P33261 whole entry): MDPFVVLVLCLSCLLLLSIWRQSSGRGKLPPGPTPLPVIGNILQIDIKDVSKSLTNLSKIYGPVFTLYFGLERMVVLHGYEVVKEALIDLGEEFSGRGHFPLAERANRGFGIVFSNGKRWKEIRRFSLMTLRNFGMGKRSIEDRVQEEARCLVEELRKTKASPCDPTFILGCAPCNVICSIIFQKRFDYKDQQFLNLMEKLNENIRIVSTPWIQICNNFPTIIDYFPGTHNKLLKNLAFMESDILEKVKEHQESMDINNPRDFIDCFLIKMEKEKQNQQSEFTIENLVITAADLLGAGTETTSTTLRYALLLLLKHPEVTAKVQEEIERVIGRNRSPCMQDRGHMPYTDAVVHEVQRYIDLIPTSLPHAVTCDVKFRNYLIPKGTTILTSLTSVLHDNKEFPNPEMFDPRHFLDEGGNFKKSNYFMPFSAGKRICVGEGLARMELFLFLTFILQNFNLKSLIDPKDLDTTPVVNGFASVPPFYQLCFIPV

For `CCCc1cc(C(=O)Nc2cc(C)ccc2O)no1`, the IC50 [1] was > 80 µM (inactive).
In the case of `Cn1cc(Cl)c(-c2nnc(S)n2-c2ccccc2)n1`, the EC50 [2] is reported as > 79.4 µM (inactive), the EC50 [3] is reported as > 79.4 µM (not active) and the EC50 [4] is reported as > 79.4 µM (not active).
For `COc1cc2c(cc1OC)CN(C(=O)c1ccc([N+](=O)[O-])o1)CC2`, the EC50 [5] was 11.6 µM (active), the EC50 [6] was 37.5 µM (active) and the EC50 (H4) was > 120 µM (not active). For the same compound, the CC50 [7] was > 40 µM (active) and the IC50 (cells) was 0.14 µM (active).
In the case of `C=C(C)c1cccc(C(C)(C)NC(=O)Nc2ccc(C)cn2)c1`, the IC50 (Aminopeptidase N) is reported as 41.3 µM (active).
In the case of `Cn1c(=O)c2c(ncn2Cc2ccc(Cl)c(Cl)c2)n(C)c1=O`, the IC50 (Bcl-2-related protein A1) is reported as > 20 µM (inactive), the IC50 [8] is reported as 16.3 µM (active) and the IC50 [9] is reported as 7.05 µM (active).
For `C=CC[C@@H](CC/C=C/C=C/CC/C=C\[C@@H]1CSC([C@@H]2C[C@@H]2C)=N1)OC`, the IC50 [1] was > 80 µM (inactive).
For `CC(=O)c1ccc(NC(=O)CSc2nnc(C3CC3)n2C2CC2)cc1`, the AC50 (Escherichia coli) was 109 µM (active).
With `Cc1sc(NC(=O)c2ccccc2)c(C(=O)NCCN(C)C)c1C` the EC50 [10] was 3.35 µM (active), the AC50 (Cytochrome P450 2C19) was “inconclusive” and the IC50 [11] was > 100 µM (active).
In the case of `c1ccc2c(c1)CC/C2=N/Nc1nc2ccccc2[nH]1`, the EC50 [12] is reported as > 79.4 µM (not active), the EC50 [13] is reported as > 79.4 µM (not active) and the EC50 [14] is reported as > 79.4 µM (not active). For the same compound, the EC50 [15] was 2.6 µM (active) and the EC50 [16] was > 30 µM (not active).
For `NC(=O)N/N=C\c1cc(Br)ccc1O`, the IC50 (Aminopeptidase N) was 50.6 µM (active).
With `CCN(CC)CCOC(=O)c1ccc(NC(=O)c2cn(-c3ccccc3)nc2-c2cccs2)cc1` the IC50 (Bcl-2-related protein A1) was > 20 µM (inactive), the IC50 [8] was 8.78 µM (active) and the IC50 [9] was > 20 µM (inactive).
